# From ChEMBL document CHEMBL1139510, “Early absorption and distribution analysis of antitumor and anti-AIDS drugs: lipid membrane and plasma protein interactions” (J Med Chem, 2005)
# Key:
# Type in all cases: ADME
# [1] = molecular target: T1, Albumin (Homo sapiens, UniProt P02768); assay: Equilibrium dissociation constant for the interaction between the compound and serum albumin
# [2] = molecular target: T1, Albumin; assay: Association rate constant for the interaction between the compound and serum albumin
# [3] = molecular target: T1, Albumin; assay: Dissociation rate constant for the interaction between the compound and serum albumin
# T1 sequence (P02768 whole entry): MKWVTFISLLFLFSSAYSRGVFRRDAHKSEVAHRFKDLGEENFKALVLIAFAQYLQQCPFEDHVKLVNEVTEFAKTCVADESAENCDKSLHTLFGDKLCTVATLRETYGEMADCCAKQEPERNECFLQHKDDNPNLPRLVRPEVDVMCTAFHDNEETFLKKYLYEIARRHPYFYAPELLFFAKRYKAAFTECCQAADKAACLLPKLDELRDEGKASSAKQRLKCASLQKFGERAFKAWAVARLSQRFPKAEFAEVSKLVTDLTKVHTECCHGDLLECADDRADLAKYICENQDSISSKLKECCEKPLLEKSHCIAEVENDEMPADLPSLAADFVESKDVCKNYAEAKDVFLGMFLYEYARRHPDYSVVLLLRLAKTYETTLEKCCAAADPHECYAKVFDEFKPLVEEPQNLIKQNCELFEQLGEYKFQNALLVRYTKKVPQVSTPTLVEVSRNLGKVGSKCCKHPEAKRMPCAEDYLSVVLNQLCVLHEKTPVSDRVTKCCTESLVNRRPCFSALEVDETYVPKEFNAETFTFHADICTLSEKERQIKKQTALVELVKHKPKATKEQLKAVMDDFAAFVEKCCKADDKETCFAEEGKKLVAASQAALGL
Kd ([1]; read-out: KD1) [µM],Kd ([1]; read-out: KD2) [µM],kon ([2]; read-out: Kon1) [M⁻¹ s⁻¹],kon ([2]; read-out: Kon2) [M⁻¹ s⁻¹],Koff1 [3] [s⁻¹],Koff2 [3] [s⁻¹],SMILES
34,301,25000,282,0.856,0.085,CC(C)(C)NC(=O)[C@@H]1C[C@@H]2CCCC[C@@H]2CN1C[C@@H](O)[C@H](Cc1ccccc1)NC(=O)[C@H](CC(N)=O)NC(=O)c1ccc2ccccc2n1
124,328,22100,208,2.75,0.068,CC(C)CN(C[C@@H](O)[C@H](Cc1ccccc1)NC(=O)O[C@H]1CCOC1)S(=O)(=O)c1ccc(N)cc1
192,1170,7300,36.4,1.183,0.033,CC(=O)O[C@H]1C(=O)[C@@]2(C)C([C@H](OC(=O)c3ccccc3)[C@]3(O)C[C@H](OC(=O)[C@H](O)[C@@H](NC(=O)c4ccccc4)c4ccccc4)C(C)=C1C3(C)C)[C@]1(OC(C)=O)CO[C@@H]1C[C@@H]2OC(=O)CCC(=O)O (stereo partly specified)
230,6,1800,12.6,0.413,–,Cc1c(O)cccc1C(=O)N[C@@H](CSc1ccccc1)[C@H](O)CN1C[C@H]2CCCC[C@H]2C[C@H]1C(=O)NC(C)(C)C
149,599,9600,41.8,1.43,0.025,COC(=O)N[C@H](C(=O)N[C@@H](Cc1ccccc1)[C@@H](O)CN(Cc1ccc(-c2ccccn2)cc1)NC(=O)[C@@H](NC(=O)OC)C(C)(C)C)C(C)(C)C [ATAZANAVIR]
199,2110,7700,43.7,1.505,0.069,CC(=O)O[C@@]12CO[C@@H]1C[C@H](O)[C@@]1(C)C(=O)[C@H](O)C3=C(C)[C@@H](OC(=O)[C@H](O)[C@@H](NC(=O)OC(C)(C)C)c4ccccc4)C[C@@](O)([C@@H](OC(=O)c4ccccc4)[C@H]21)C3(C)C.O.O.O [DOCETAXEL]
24,6,25900,10.1,0.619,–,Cc1cccc(C)c1OCC(=O)N[C@@H](Cc1ccccc1)[C@@H](O)C[C@H](Cc1ccccc1)NC(=O)[C@H](C(C)C)N1CCCNC1=O [LOPINAVIR]

SMILES,Kd ([1]; read-out: KD1) [µM],Kd ([1]; read-out: KD2) [µM],kon ([2]; read-out: Kon1) [M⁻¹ s⁻¹],kon ([2]; read-out: Kon2) [M⁻¹ s⁻¹],Koff1 [3] [s⁻¹],Koff2 [3] [s⁻¹]
CC(=O)O[C@@]1(C2/C(C)=C(/O)C(=O)C3=C(C)[C@@H](OC(=O)[C@H](O)[C@H](CC(C)C)NC(=O)OC(C)(C)C)C[C@@](O)([C@H]2OC(=O)c2ccccc2)C3(C)C)CO[C@@H]1CCO (stereo partly specified),319,1820,5900,33.1,1.875,0.045
